Reference: US20220288051A1, “METHODS FOR TREATING CANCER USING SERIAL ADMINISTRATION OF E3 UBIQUITIN LIGASE DEGRADERS” (Dana-Farber Cancer Institute, Inc., priority 2019, published 2022)
“Also recorded” adds a separate entry of the source.

Tests used:
MM.1S-Cas9+ cells = test: Genome-scale CRISPR/Cas9 gene editing (LOF) resistance screens; type: cell-based, human; conditions: for sgRNA enrichment in resistant cells, long-term screen: long-term treatment, NGS of sgRNAs; for sgRNA enrichment, extended degronimid treatment: Thal-SNS-032-resistant MM.1S cells, additional 2 weeks
Description: MM.1S cells transduced with lentiviral construct for SpCas9 were kindly provided from Quinlan Sievers (Ebert Lab, BWH/DFCI). MM.1S cells were also transduced with lentiviral construct for dCas9-VP64 (purchased from Addgene).
ii. Lentiviral transductions with sgRNA libraries: For the screen with the GECKOv2 sgRNA library, tumor cell transductions were performed in batches of 8×10^7 cells per sub-library for each replicate. Cells were incubated for 16 hrs in cell medium containing polybrene (2 μg/mL; Santa Cruz Biotechnology), 10 mM HEPES (pH 7.4) (Sigma-Aldrich) and viral prep (4 mL) diluted to achieve an MOI of 0.4. After the end of the incubation with the viral preps, cells were washed and incubated for an additional day. Transduced cells were cultured at an initial density of 1×10^6 cells/mL and were treated with puromycin (1 μg/mL) for up to 14 days immediately after transduction. After puromycin selection, MM.1S-Cas9^+ cells transduced with each GeCKOv2 sublibrary were plated at 60×10^6 cells per flask (T175, 100 mL) to enable coverage of ˜1000× and were sub-cultured at four to five-day intervals to prevent confluence. At each passage, cells were harvested, washed with PBS (Corning, N.Y.), pelleted (5000 rpm, 5 min, 4° C.) and frozen as cell pellets (−80° C.) for next generation sequencing, and also replated at 60×10^6 cells to maintain 1000× coverage.
For the genome-scale screens with the Brunello sgRNA library, tumor cell transductions were performed in batches of 5×10^7 cells per library for six replicates. Cells were incubated (18 h) in cell medium containing polybrene (5 μg/mL; Santa Cruz Biotechnology), 10 mM HEPES (pH 7.4) (Sigma-Aldrich) and viral prep (30 mL) diluted 1:1. Transduced cells were cultured at an initial density of 1×10^6 cells/mL and were treated with puromycin (1 μg/mL) for up to 5 days additional two days from transduction. After stable transduction, pooled MM.1S cells were plated at 40×10^6 cells per flask (T175, 100 mL) to enable coverage of 500× and were sub-cultured at three- to four day intervals to prevent confluence. At each passage, cells were harvested, washed with PBS (Corning), pelleted (5000 rpm, 5 min, 4° C.) and frozen as cell pellets (−80° C.) for next generation sequencing, and also replated at 40×10^6 cells (˜500× coverage).
iii. […] Following treatments, all cells were serially cultured without drug and allowed to regrow for as long as required to enable reseeding (60×10^6 cells per flask, 100 mL) and retreatment with individual drugs while maintaining ˜1000× coverage throughout. Concomitant with retreatment, remaining cells were frozen (−80° C.; 20% FBS/DMSO) for later analysis or assessed for drug resistance/sensitivity using CTG assays. Between treatments, and in order to maintain the health of cultures, dead cells were periodically removed using Ficoll centrifugation (1,500 rpm for 10-20 min). For all CRISPR drug treatment experiments, aliquots of MM.1S-Cas9+ cells transduced with the GeCKO(Sanjana et al., 2014; Shalem et al., 2014) or Brunello (Doench et al., 2016) sgRNA libraries were frozen immediately prior to experimentation to determine the baseline distribution of sgRNAs in the cell population.
For “long-term” treatment screens with Thal-SNS-032-, ARV-771- and MZ-1-resistant cells, we continuously treated MM.1S-Cas9+ cells (40×10^6, —500× coverage) transduced with the Brunello sgRNA library (4 weeks post-puromycin selection) with either each compound's (IC20) or vehicle control. Cells were serially passaged every 3-4 days to prevent confluence, each time replating at ˜500× coverage (100 mL) at the same time replenishing each compound or vehicle. Drug treatments were paused if cell numbers fell below 10×10^6 per flask, allowing cells to recover and regrow, and treatments were resumed at a lower concentration when cell numbers reached 40×10^6. At each passage, cells were assayed for drug sensitivity/resistance using CTG. […]

MM.1S Cas9+ cells = test: Dose-response assay of cells with individual sgRNA knock-outs, CTG; type: cell-based, human
Description: Non-targeting control sgRNAs and COPS7B sgRNAs were from GeCKOv2. Four sgRNAs were generated per each gene, except from COPS7B, for which 6 sgRNAs were available (Table S2). All sgRNAs were synthesized by CustomArray Inc (Bothell, Wash.). Cloning was performed according to the protocol published by Zhang et al. (media.addgene.org/cms/filer_public/4f/ab/4fabc269-56e2-4ba5-92bd-09dc89c1e862/zhang_lenticrisprv2_and_lentiguide_oligo_cloning_protocol_1.pdf) using a pHKO9 vector. Briefly, to clone the sgRNA guide sequence, plasmids were digested with BsmBI (New England Biolabs, Ipswich, Mass.) at 55° C. for 1 hour. Oligonucleotides for each sgRNA guide sequence were annealed and phosphorylated using T4 Ligation Buffer and T4 polynucleotide kinase (New England Biolabs) at 37° C. for 30 minutes and then annealed by heating to 95° C. for 5 minutes and cooling to 25° C. at 1.5° C./minute. Using T4 ligation buffer and T4 ligase (New England Biolabs), annealed oligos were ligated into gel purified vectors (Qiagen) at 65° C. for 10 minutes. 2.5 ug of the ligation product were transformed in 30 uL E. coli electrocompetent cells (Lucigen E.cloni 10 G ELITE PLUS, Invitrogen). Subsequently, 500 uL of transformed cells were plated on LB Agar-AmpR (ThermoFisher Scientific) and incubated overnight at 37° C. Three colonies per plate were then picked and inoculated in a mini-prep culture (Qiagen). The product was then digested with BsmBI and XhoI (New England Biolabs) at 37° C. for 1 h and compared to the uncut control on 1% agarose gel. One out of three colonies (10 uL) was then precultured in 3 mL LB Broth-AmpR and shaken at 37° C. for 6 h. Afterwards it was transferred to a 250 mL LB Broth-AmpR flask and incubated overnight at 37° C. Each culture was then inoculated into a maxiprep culture (Qiagen).
Also, CRBN, VHL, TCEBJ, TCEB2, UBE2R2 and FBXW2 sgRNA are selected from Brunello library and cloned using pLVX-hyg-sgRNA1 Vector system (Takara Bio USA, CA) according to the manufacturer's manual. b(takarabio.com/assets/documents/User %20Manual/Lenti-X_CRISPR-Cas9_System_User_Manual_121316.pdf)
ii. Lentiviral transductions with constructs for individual sgRNAs: 500×10^3 to 1×10^6 MM.1S Cas9 cells were plated in 50 uL of complete RPMI1640 medium per well in a 24-well plate, and additional 100 uL of complete RPMI1640 medium were added to cover the well completely. Cells were incubated in cell medium containing polybrene (5 to 8 μg/mL; Santa Cruz Biotechnology), and viral prep. 24 hours after addition of viral preps, media were changed and, after another 48 h, puromycin selection (1 to 2 ug/ml per well) was started. After 7 days of puromycin selection, transduced MM.1S Cas9+ cells were collected and expanded in T75 flasks.
iii. […] In the case of Thal-SNS-032 or ARV771, cells are plated 384-well plate and treated each concentration described at figure and viability assays were performed at 72 hrs.

Compound	sgRNA enrichment in resistant cells, long-term screen (MM.1S-Cas9+ cells)	activity against cells with sgRNAs against CRBN (MM.1S Cas9+ cells; MM.1S cells)	response of cells with sgRNAs against COPS7B or COPS8 (MM.1S Cas9+ cells; compared to parental MM.1S cells)	sgRNA enrichment, extended degronimid treatment (MM.1S-Cas9+ cells)	Thal-SNS-032 responsiveness after individual sgRNAs (MM.1S Cas9+ cells; sgRNAs for COPS7B, COPS2, DDB1 or COPS8)	response to dBET6 after individual sgRNAs (MM.1S Cas9+ cells; sgRNAs for COPS7B, COPS8 or CRBN)
Cc1ncsc1-c1ccc([C@H](C)NC(=O)[C@@H]2C[C@@H](O)CN2C(=O)[C@@H](NC(=O)COCCCOCCNC(=O)C[C@@H]2N=C(c3ccc(Cl)cc3)c3c(sc(C)c3C)-n3c(C)nnc32)C(C)(C)C)cc1 [ARV-771]	enrichment of sgRNAs for CUL2, VHL itself	no significant changes in ARV771 activity	decreased response	–	–	–
CC(C)(C)c1cnc(CSc2cnc(NC(=O)C3CCN(CC(=O)NCCOCCOCCOCCNc4cccc5c4C(=O)N(C4CCC(=O)NC4=O)C5=O)CC3)s2)o1 (stereo not drawn) [Thal-SNS-032]	pronounced enrichment of sgRNAs for CRBN itself, and COP9 signalosome complex genes	–	–	CRBN is the only gene which exhibits enrichment of its sgRNAs; also recorded: further enrichment of MM cells containing sgRNA against CRBN	decrease the Thal-SNS-032 responsiveness	–
Cc1sc2c(c1C)C(c1ccc(Cl)cc1)=N[C@@H](CC(=O)NCCCCCCCCNC(=O)COc1cccc3c1C(=O)N(C1CCC(=O)NC1=O)C3=O)c1nnc(C)n1-2 (stereo partly drawn) [dBET6]	significant enrichment of sgRNAs targeting CRBN itself, as well as other components or regulators of the cullin-RING ligase (CRL) complex	–	–	CRBN is the only gene which exhibits enrichment of its sgRNAs; also recorded: further enrichment of MM cells containing sgRNA against CRBN	–	decreases the response of MM.1S cells to dBET6
